# What was measured:
# Format in all cases: functional
# Bacillus subtilis [1] = assay: Antibacterial activity against Bacillus subtilis assessed as diameter of inhibition zone at 100 microg/ml incubated for 18 to 24 hrs by disc-diffusion method; conditions: time 18-24 hrs, read-out: DIZ
# Staphylococcus aureus [2] = assay: Antibacterial activity against Staphylococcus aureus assessed as diameter of inhibition zone at 100 microg/ml incubated for 18 to 24 hrs by disc-diffusion method; conditions: time 18-24 hrs, read-out: DIZ
# Escherichia coli [3] = assay: Antibacterial activity against Escherichia coli assessed as diameter of inhibition zone at 100 microg/ml incubated for 18 to 24 hrs by disc-diffusion method; conditions: time 18-24 hrs, read-out: DIZ
# Pseudomonas aeruginosa [4] = assay: Antibacterial activity against Pseudomonas aeruginosa ATCC 9027
# Escherichia coli [5] = assay: Antibacterial activity against Escherichia coli ATCC 8739
# Staphylococcus aureus [6] = assay: Antibacterial activity against Staphylococcus aureus ATCC 6538P
# Aspergillus niger [7] = assay: Antifungal activity against Aspergillus niger assessed as fungal growth inhibition
# Candida albicans [8] = assay: Antifungal activity against Candida albicans assessed as fungal growth inhibition
# Bacillus subtilis [9] = assay: Antibacterial activity against Bacillus subtilis MTTC 441 assessed as reduction in bacterial growth
# Staphylococcus aureus [10] = assay: Antibacterial activity against Staphylococcus aureus MTCC 3160 assessed as reduction in bacterial growth
# Staphylococcus aureus [11] = assay: Antibacterial activity against Staphylococcus aureus assessed as reduction in bacterial growth incubated for 24 hrs by broth microdilution method
# Staphylococcus aureus [12] = assay: Antibacterial activity against Staphylococcus aureus assessed as diameter of inhibition zone incubated for 24 hrs by […]
# Bacillus subtilis [13] = assay: Antibacterial activity against Bacillus subtilis NCIM-2063 by CLSI based microdilution assay
# Bacillus cereus [14] = assay: Antibacterial activity against Bacillus cereus NCIM-2156 by CLSI based microdilution assay
# Staphylococcus aureus [15] = assay: Antibacterial activity against Staphylococcus aureus NCIM-2079 by CLSI based microdilution assay
# Escherichia coli [16] = assay: Antibacterial activity against Escherichia coli NCIM-2065 by CLSI based microdilution assay
# Proteus vulgaris [17] = assay: Antibacterial activity against Proteus vulgaris NCIM-2027 by CLSI based microdilution assay
# Escherichia coli [18] = assay: Antibacterial activity against Escherichia coli assessed as reduction in bacterial growth
# Bacillus subtilis [19] = assay: Antibacterial activity against Bacillus subtilis assessed as reduction in bacterial growth
# Pseudomonas aeruginosa [20] = assay: Antibacterial activity against Pseudomonas aeruginosa assessed as reduction in bacterial growth
# Candida albicans [21] = assay: Antifungal activity against Candida albicans IFRC 194 assessed as reduction in fungal growth by CLSI based micro-dilution asssay
# Nakaseomyces glabratus [22] = assay: Antifungal activity against Candida glabrata assessed as reduction in fungal growth by CLSI based micro-dilution asssay
# Candida parapsilosis = assay: Antifungal activity against Candida parapsilosis IFRC 1269 assessed as reduction in fungal growth by CLSI based micro-dilution asssay; conditions: Lodderomyces parapsilosis
# Pichia kudriavzevii = assay: Antifungal activity against Candida krusei IFRC 1012 assessed as reduction in fungal growth by CLSI based micro-dilution asssay
# Candida tropicalis = assay: Antifungal activity against Candida tropicalis IFRC 1057 assessed as reduction in fungal growth by CLSI based micro-dilution asssay
# Staphylococcus aureus [23] = assay: Antibacterial activity against Staphylococcus aureus assessed as reduction in bacterial growth by broth microdilution method
# Staphylococcus aureus [24] = assay: Antibacterial activity against Staphylococcus aureus
# Bacillus subtilis [25] = assay: Antibacterial activity against Bacillus subtilis NCIM 2063 assessed as reduction in bacterial growth incubated for 18 to 24 hrs by broth microdilution method; conditions: time 18-24 hrs
# Bacillus cereus [26] = assay: Antibacterial activity against Bacillus cereus NCIM 2156 assessed as reduction in bacterial growth incubated for 18 to 24 hrs by broth microdilution method; conditions: time 18-24 hrs
# Proteus mirabilis = assay: Antibacterial activity against Proteus mirabilis NCIM 2241 assessed as reduction in bacterial growth incubated for 18 to 24 hrs by broth microdilution method; conditions: time 18-24 hrs
# Proteus vulgaris [27] = assay: Antibacterial activity against Proteus vulgaris NCIM 2027 assessed as reduction in bacterial growth incubated for 18 to 24 hrs by broth microdilution method; conditions: time 18-24 hrs
# Staphylococcus aureus [28] = assay: Antibacterial activity against Staphylococcus aureus assessed as inhibition of bacterial growth
# Klebsiella pneumoniae = assay: Antibacterial activity against Klebsiella pneumoniae assessed as inhibition of bacterial growth
# Candida albicans [29] = assay: Antifungal activity against Candida albicans MTCC 227 assessed as inhibition of fungal growth
# Candida albicans [30] = assay: Antifungal activity against Candida albicans assessed as fungal growth inhibition by CLSI based method
# Cryptococcus neoformans [31] = assay: Antifungal activity against Cryptococcus neoformans assessed as fungal growth inhibition by CLSI based method
# Candida albicans [32] = assay: Antifungal activity against Candida albicans Y0109 assessed as reduction in fungal growth incubated for 24 hrs by NCCLS based assay
# Candida albicans [33] = assay: Antifungal activity against Candida albicans SC5314 assessed as reduction in fungal growth incubated for 24 hrs by NCCLS based assay
# Nakaseomyces glabratus [34] = assay: Antifungal activity against Candida glabrata 537 assessed as reduction in fungal growth incubated for 72 hrs by NCCLS based assay
# Cryptococcus neoformans [35] = assay: Antifungal activity against Cryptococcus neoformans 32609 assessed as reduction in fungal growth incubated for 72 hrs by NCCLS based assay
# Aspergillus fumigatus [36] = assay: Antifungal activity against Aspergillus fumigatus 7544 assessed as reduction in fungal growth incubated for 5 to 7 days by NCCLS based assay; conditions: time 5-7 day
# Trichophyton rubrum = assay: Antifungal activity against Trichophyton rubrum assessed as reduction in fungal growth incubated for 5 to 7 days by NCCLS based assay; conditions: time 5-7 day
# Nannizzia gypsea = assay: Antifungal activity against Microsporum gypseum assessed as reduction in fungal growth incubated for 5 to 7 days by NCCLS based assay; conditions: time 5-7 day
# Aspergillus fumigatus [37] = assay: […] activity against Aspergillus fumigatus NCIM 2081 assessed as reduction in […] by micro-broth dilution method
# Aspergillus niger [38] = assay: […] activity against Aspergillus niger NCIM 2191 assessed as reduction in […] by micro-broth dilution method
# Candida albicans [39] = assay: Antifungal activity against Candida albicans NCIM 2087 assessed as fungal growth inhibition
# [40] = test system: Staphylococcus epidermidis; assay: Antibacterial activity against Methicillin-sensitive Staphylococcus epidermidis assessed as bacterial growth inhibition
# [41] = test system: Staphylococcus epidermidis; assay: Antibacterial activity against Methicillin-resistant Staphylococcus epidermidis assessed as bacterial growth inhibition
# Enterococcus faecalis = assay: Antibacterial activity against Enterococcus faecalis assessed as bacterial growth inhibition
# Staphylococcus aureus [42] = assay: Antibacterial activity against Staphylococcus aureus assessed as reduction in microbial growth incubated for 18 to 24 hrs by serial dilution method; conditions: time 18-24 hrs
# Staphylococcus aureus [43] = assay: Antibacterial activity against methicillin-sensitive Staphylococcus aureus assessed as reduction in microbial growth incubated for 18 to 24 hrs by serial dilution method; conditions: time 18-24 hrs
# Staphylococcus aureus [44] = assay: Antibacterial activity against methicillin-resistant Staphylococcus aureus assessed as reduction in microbial growth incubated for 18 to 24 hrs by serial dilution method; conditions: time 18-24 hrs
# Enterococcus faecium = assay: Antibacterial activity against Enterococcus faecium ATCC 700221
compound,measurement,setting,value
Sc1nncn1/N=C/c1cccc(Oc2ccccc2)c1,zone of inhibition at 100 µg/mL,Bacillus subtilis [1],15 mm
same,zone of inhibition at 100 µg/mL,Staphylococcus aureus [2],15 mm
same,zone of inhibition at 100 µg/mL,Escherichia coli [3],15 mm
CCn1cc(C(=O)O)c(=O)c2cc(F)c(N3CCN(Cn4nc(-c5ccncc5)n(-c5ccc(OC)cc5)c4=S)CC3)cc21,MIC,Pseudomonas aeruginosa [4],0.125 µg/mL
same,MIC,Escherichia coli [5],0.125 µg/mL
same,MIC,Staphylococcus aureus [6],0.125 µg/mL
Cc1ccc(NC(=O)Cn2cc(COc3ccc(C(=O)/C=C/c4ccc([N+](=O)[O-])cc4)cc3)nn2)cc1,MIC,Aspergillus niger [7],125 µM
same,MIC,Candida albicans [8],125 µM
O=C(Cn1cc(COc2cccc(/C=N/c3ccc(F)cc3)c2)nn1)Nc1ccc(Br)cc1,MIC,Bacillus subtilis [9],12 µM
same,MIC,Staphylococcus aureus [10],6 µM
O=c1cc(OCCn2cc(Cn3cc(Cl)c(=O)n(Cc4cn(CCOc5cc(=O)oc6ccccc56)nn4)c3=O)nn2)c2ccccc2o1,MIC,Staphylococcus aureus [11],7.23 µg/mL
same,diameter of the inhibition zone (DIZ),Staphylococcus aureus [12],26 mm
O=C(CNN1C(=O)CSC1c1ccc(-c2ccc(F)cc2)cc1)NN1C(c2ccncc2)=NNC1S (stereo unspecified),MIC,Bacillus subtilis [13],3.12 µg/mL
same,MIC,Bacillus cereus [14],3.12 µg/mL
same,MIC,Staphylococcus aureus [15],3.12 µg/mL
same,MIC,Escherichia coli [16],3.12 µg/mL
same,MIC,Proteus vulgaris [17],3.12 µg/mL
CCCCCCCCCCCCCCCc1nnc(S)n1/N=C\c1cc(OC)c(OC)c(OC)c1,MIC,Escherichia coli [18],24.7 µg/mL
same,MIC,Bacillus subtilis [19],24.7 µg/mL
same,MIC,Pseudomonas aeruginosa [20],12.3 µg/mL
O=C(CNN1C(=O)CSC1c1ccc(-c2ccc(F)cc2)cc1)NN1C(c2ccc([N+](=O)[O-])cc2)=NNC1S (stereo unspecified),MIC,Bacillus subtilis [13],3.12 µg/mL
same,MIC,Bacillus cereus [14],3.12 µg/mL
same,MIC,Staphylococcus aureus [15],3.12 µg/mL
same,MIC,Escherichia coli [16],3.12 µg/mL
same,MIC,Proteus vulgaris [17],3.12 µg/mL
OC(CSC(=S)N1CCN(Cc2ccc(Cl)cc2)CC1)(Cn1cncn1)c1ccc(F)cc1F (stereo unspecified),MIC,Candida albicans [21],0.063 µg/mL
same,MIC,Nakaseomyces glabratus [22],0.063 µg/mL
same,MIC,Candida parapsilosis,0.063 µg/mL
same,MIC,Pichia kudriavzevii,0.063 µg/mL
same,MIC,Candida tropicalis,0.063 µg/mL
CC(C)Cc1ccc(C(C)C(=O)NC(Cc2cn(Cc3cn(CC(=O)Nc4ccccc4Cl)nn3)c3ccccc23)C(=O)NC(Cc2ccccc2)C(N)=O)cc1 (stereo unspecified),MIC,Staphylococcus aureus [23],25 µg/mL
O=C(O)c1cn(C2CC2)c2cc(N3CCNCC3)c(F)cc2c1=O [CIPROFLOXACIN],MIC,Staphylococcus aureus [24],9 µM
same,MIC,Bacillus subtilis [19],18 µg/mL
same,MIC,Staphylococcus aureus [10],9 µM
same,MIC,Bacillus subtilis [25],12.5 µg/mL
same,MIC,Bacillus cereus [26],3.12 µg/mL
same,MIC,Proteus mirabilis,12.5 µg/mL
same,MIC,Proteus vulgaris [27],12.5 µg/mL
same,MIC,Pseudomonas aeruginosa [20],18 µg/mL
same,MIC,Staphylococcus aureus [28],8 µg/mL
same,MIC,Klebsiella pneumoniae,16 µg/mL
OC(Cn1cncn1)(Cn1cncn1)c1ccc(F)cc1F [FLUCONAZOLE],MIC,Staphylococcus aureus [10],40 µM
same,MIC,Aspergillus niger [7],20.4 µg/mL
same,MIC,Candida albicans [29],40 µM
same,MIC,Candida albicans [30],4 µg/mL
same,MIC,Cryptococcus neoformans [31],4 µg/mL
same,MIC80,Candida albicans [32],0.25 µg/mL
same,MIC80,Candida albicans [33],0.5 µg/mL
same,MIC80,Nakaseomyces glabratus [34],2 µg/mL
same,MIC80,Cryptococcus neoformans [35],1 µg/mL
same,MIC80,Aspergillus fumigatus [36],> 64 µg/mL
same,MIC80,Trichophyton rubrum,8 µg/mL
same,MIC80,Nannizzia gypsea,32 µg/mL
same,MIC,Candida albicans [21],0.5 µg/mL
same,MIC,Nakaseomyces glabratus [22],0.5 µg/mL
same,MIC,Candida parapsilosis,0.5 µg/mL
same,MIC,Pichia kudriavzevii,0.5 µg/mL
same,MIC,Candida tropicalis,0.5 µg/mL
same,MIC,Aspergillus fumigatus [37],16 µg/mL
same,MIC,Aspergillus niger [38],4 µg/mL
same,MIC,Candida albicans [39],1 µg/mL
CCn1cc(C(=O)O)c(=O)c2cc(F)c(N3CCNCC3)cc21 [NORFLOXACIN],MIC,Pseudomonas aeruginosa [4],0.125 µg/mL
same,MIC,Escherichia coli [5],0.125 µg/mL
same,MIC,Staphylococcus aureus [6],0.125 µg/mL
CN[C@H](CC(C)C)C(=O)N[C@H]1C(=O)N[C@@H](CC(N)=O)C(=O)N[C@H]2C(=O)N[C@H]3C(=O)N[C@H](C(=O)N[C@H](C(=O)O)c4cc(O)cc(O)c4-c4cc3ccc4O)[C@H](O)c3ccc(c(Cl)c3)Oc3cc2cc(c3O[C@@H]2O[C@H](CO)[C@@H](O)[C@H](O)[C@H]2O[C@H]2C[C@](C)(N)[C@H](O)[C@H](C)O2)Oc2ccc(cc2Cl)[C@H]1O [VANCOMYCIN],MIC,[40],0.5 µg/mL
same,MIC,[41],0.5 µg/mL
same,MIC,Enterococcus faecalis,0.5 µg/mL
same,MIC,Staphylococcus aureus [42],0.25 µg/mL
same,MIC,Staphylococcus aureus [43],0.25 µg/mL
same,MIC,Staphylococcus aureus [44],0.25 µg/mL
same,MIC,Enterococcus faecium,> 88.3 µM
